# Data: ChEMBL document CHEMBL1151095, “Anti-human immunodeficiency virus type-1 (HIV-1) and anti-hepatitis B virus (HBV) activities of (2,3-dideoxy-2-fluoro--L-threo-pentofuranosyl)nucleosides” (Bioorg Med Chem Lett, 1995)
# Tests used:
# CCRF-CEM = assay: Cytotoxicity in CEM cells; assay type: functional, cell-based; conditions: Homo sapiens
# Vero = assay: Cytotoxicity in Vero cells; assay type: functional, cell-based; conditions: Chlorocebus sabaeus
# [1] = Cytotoxicity in human peripheral blood mononuclear (PBM) cells; assay type: functional, cell-based
# Homo sapiens [2] = organism: Homo sapiens; assay: Cytotoxicity in 2.2.15 cells; assay type: functional, cell-based; conditions: HepG2 2.2.15
# Homo sapiens [3] = organism: Homo sapiens; assay: In vitro anti-HBV activity in 2.2.15 cells; assay type: functional, cell-based; conditions: HepG2 2.2.15
# [4] = In vitro anti-HIV activity was evaluated in human peripheral blood mononuclear (PBM) cells; assay type: functional
Structure (SMILES),IC50 (CCRF-CEM) [µM],IC50 (Vero) [µM],IC50 [1] [µM],IC50 (Homo sapiens [2]) [µM],EC50 (Homo sapiens [3]) [µM],EC50 [4] [µM]
Nc1ccn([C@@H]2O[C@H](CO)C[C@@H]2F)c(=O)n1,> 100,> 100,> 100,> 200,4,16.2
Nc1ncnc2c1ncn2[C@@H]1O[C@H](CO)C[C@@H]1F [LODENOSINE],> 100,> 100,> 100,> 200,> 10,100
Cc1cn([C@H]2C[C@H](N=[N+]=[N-])[C@@H](CO)O2)c(=O)[nH]c1=O [ZIDOVUDINE],–,–,> 100,–,–,0.004
